According to US20090029972A1, “Dibenzodiazepinone Analogues, Processes for Their Production and Their Use as Pharmaceuticals” (Ecopia BioSciences Inc, priority 2004, published 2009):
“Also recorded” adds a separate entry of the source.

Columns and labels:
[1] = in vivo; settings: CD-1 nu/nu, mouse, iv
[2] = Pharmacokinetic profiles, plasma; assay type: in vivo, female Crl: CD1 mice; settings: female, Crl: CD1, mouse, ip, 30 mg/kg
Method: Compounds 1 and 2 were separately dissolved in ethanol (5%), Polysorbate 80 (15%), PEG 400 (5%) and dextrose (5%) at a final concentration of 6 mg/ml (for all parenteral administration routes). For oral […], Compound 1 was solubilized in Cremophor® EL/Ethanol (50%:50%) at a final concentration of 6 mg/ml. Prior to dosing, animals (female Crl: CD1 mice; 6 weeks of age, 22-24 g) were weighed, randomly selected and assigned to the different treatment groups. Compound 1 was administered by the intravenous (iv), subcutaneous (sc), intraperitoneal (ip), or oral (po) route to the assigned animals. Compound 2 was administered by the intravenous (iv), or intraperitoneal (ip) route to the assigned animals. […] Samples were analysed by LC/MS/MS.
Plasma values of Compounds 1 and 2 falling below the limit of quantitation (LOQ) were set to zero.
The following pharmacokinetic parameters were calculated: area under the plasma concentration versus time curve from time zero to the last measurable concentration time point (AUC0-t), area under the plasma concentration versus time curve extrapolated to infinity (AUCinf), maximum observed plasma concentration (Cmax), time of maximum plasma concentration (tmax), apparent first-order terminal elimination rate constant (kel), apparent first-order terminal elimination half-life will be calculated as 0.693/kel (t1/2). […]

[3] = tested on: C6 glioblastoma; test: In vivo efficacy in glioma model, second series (treatment from day 10); design: species or system Mus musculus nude mice
From the text: The aim of this study was to test whether Compounds 1 and 2 prevent or delay tumor growth in C6 glioblastoma cell-bearing mice, and to determine an effective dosage regimen. […]
(§1) Tumor Cell Line: The C6 cell line was cloned from a rat glial tumor induced by N-nitrosomethyurea (NMU) according to Premont et al. (Premont J, Benda P, Jard S., [3H] norepinephrine binding by rat glial cells in culture. Lack of correlation between binding and adenylate cyclase activation. Biochim Biophys Acta. 1975 Feb. 13; 381(2):368-76.) after series of alternate culture and animal passages. […] The cells were counted in a hemocytometer and their viability assessed by 0.25% trypan blue exclusion. […]
In a second series of experiments, treatment started at day 10 following inoculation of C6 cells when tumors became palpable (around 100 to 200 mm^3). […] Tumor volume was measured every second day until the end of the treatment using callipers. […]

[4] = tested on: C6 glioblastoma; test: In vivo efficacy in glioma model, first series (treatment 24 hrs after inoculation); design: species or system Mus musculus nude mice; settings: all treated groups (10-30 mg/kg i.p.), Anova and Dunnett's test
Method: The aim of this study was to test whether Compounds 1 and 2 prevent or delay tumor growth in C6 glioblastoma cell-bearing mice, and to determine an effective dosage regimen.
Animal experiments were performed according to ethical guidelines of animal experimentation (Charte du comité d′éthique du CNRS, juillet 2003) and the English guidelines for the welfare of animals in experimental neoplasia (WORKMAN, P., […], P., BALKWILL, F., et al. (1998). United Kingdom Coordinating Committee on Cancer Research (UKCCCR) Guidelines for the welfare of animals in experimental neoplasia (Second Edition, July 1997; British Journal of Cancer, 77:1-10). Any dead or apparently sick mice were promptly removed and replaced with healthy mice. Sick mice were euthanized upon removal from the cage. […]
as §1

[5] = for several days post-injection, ip and iv
[6] = tested on: HT-29, SF268, MDA-MB-231 and PC-3 cell lines; test: In vitro cytotoxic activity, four cell lines together (average, comparison); assay type: cell-based; settings: for anticancer activity compared with Compound 1: Table 12 cell lines
Method: (§2) Compounds were dissolved at 10 mM in DMSO. Dilution in vehicle to concentrations of 30, 10, 3, 1 and 0.3 μM were prepared immediately before assays. Depending on the cell line's growth characteristics, 4000-10000 cells were plated in two 96-wells pates (day 0) and incubated for 16 hours. The following day, propidium iodide was added to one of the two plates and fluorescence measured (Tz). Test compounds were added to the second plate, as well as vehicle control, and cells further incubated for 96 hours. Each compound was tested at each concentration and in triplicates. The equivalent cell number was determined after adding propidium iodide by measuring the signal by fluorescence (C for control).

[7] = tested on: SF268 (CNS); test: In vitro cytotoxic activity GI50, method (a), SF-268; assay type: cell-based; settings: Homo sapiens, 96 hours incubation, propidium iodide
Method: as §2

[8] = tested on: PC-3 (prostate adenocarcinoma); test: In vitro cytotoxic activity GI50, method (a), PC-3; assay type: cell-based; settings: 96 hours incubation, propidium iodide
Method: as §2

[9] = tested on: HT-29 (colorectal carcinoma); test: In vitro cytotoxic activity GI50, method (a), HT-29; assay type: cell-based; settings: Homo sapiens, 96 hours incubation, propidium iodide
Method: as §2

[10] = tested on: MDA-MB-231 (mammary gland adenocarcinoma); test: In vitro cytotoxic activity GI50, method (a), MDA-MB-231; assay type: cell-based; settings: Homo sapiens, 96 hours incubation, propidium iodide
Method: as §2

## CC(C)=CCC/C(C)=C/CC/C(C)=C/CN1C(=O)c2cccc(O)c2Nc2c(O)cc(O)cc21 [Compound 1, 10-farnesyl-4,6,8-trihydroxy-5,10-dihydrodibenzo[b,e][1,4]diazepin-11-one]
[1]
  MTD: 150 mg/kg
[2]
  AUC: 9.5 µM·h
[3]; 20-30 mg/kg, FIG. 3
  Histological analysis of tumor sections: cell density of tumor treated with Compound 1 appears decreased; also recorded: cell density was decreased and the nuclei of remaining tumor cells appeared larger and pycnotic
[3]; all treated groups (20-30 mg/kg i.p.), Anova and Dunnett's test
  mean value of the tumor volume of treated groups vs saline group: significantly reduced
[4]
  mean value of the tumor volume of treated groups vs saline group: significantly reduced

## CC(C)=CCC/C(C)=C/CC/C(C)=C/CN1C(=O)c2cccc(O)c2N(C)c2c(O)cc(O)cc21 [Compound 2, 10-farnesyl-4,6,8-trihydroxy-5-methyl-5,10-dihydro-dibenzo[b,e][1,4]diazepin-11-one]
[1]
  MTD: ≥ 100 mg/kg
[5]
  weight losses: about 7%

## CC(C)CCCC(C)CCCC(C)CCN1C(=O)c2cccc(O)c2Nc2c(O)cc(O)cc21 (stereo not drawn) [Compound 23, 10-(3,7,11-trimethyldodecyl)-4,6,8-trihydroxy-5,10-dihydro-dibenzo[b,e][1,4]diazepin-11-one]
[6]
  anticancer activity compared with Compound 1: generally more active than Compound 1

## CC(C)=CCC/C(C)=C/CC/C(C)=C/CN1C(=O)c2cccc(O)c2Nc2c1cc(O)c(Br)c2O [Compound 24, 10-(farnesyl)-7-bromo-4,6,8-trihydroxy-5,10-dihydro-dibenzo[b,e][1,4]diazepin-11-one]
[6]
  anticancer activity compared with Compound 1: generally more active than Compound 1

## CC(=O)Oc1cc(OC(C)=O)c2c(c1)N(C/C=C(\C)CC/C=C(\C)CCC=C(C)C)C(=O)c1cccc(OC(C)=O)c1N2 [Compound 25, 4,6,8-triacetoxy-10-farnesyl-5,10-dihydro-dibenzo[b,e][1,4]diazepin-11-one]
[7]
  GI50: 1.95 µM
[8]
  GI50: 1.2 µM
[6]
  anticancer activity compared with Compound 1: generally more active than Compound 1
[6]; average of four cell lines, method (a)
  GI50: 3.82 µM
[9]
  GI50: 9.33 µM
[10]
  GI50: 2.79 µM
